Target: T1, BSSαβγ (benzylsuccinate synthase) (Thauera aromatica, UniProt O68395)
T1 construct: gene tutD; BSSαγ mixed 1:2 with BSSβ; (αβγ)2; α 865, β 81, γ 60 residues; resolved α 9-865, β 13-81, γ 5-59; catalytic Cys493; with Benzylsuccinate synthase beta subunit; Benzylsuccinate synthase gamma subunit
Assay: X-ray crystal structure, […] Å
Assay type: binding
Details: active site; toluene not added, modelled from glovebox atmosphere; also turned over with fumarate; pH 8.5

T1 sequence (O68395 1-864): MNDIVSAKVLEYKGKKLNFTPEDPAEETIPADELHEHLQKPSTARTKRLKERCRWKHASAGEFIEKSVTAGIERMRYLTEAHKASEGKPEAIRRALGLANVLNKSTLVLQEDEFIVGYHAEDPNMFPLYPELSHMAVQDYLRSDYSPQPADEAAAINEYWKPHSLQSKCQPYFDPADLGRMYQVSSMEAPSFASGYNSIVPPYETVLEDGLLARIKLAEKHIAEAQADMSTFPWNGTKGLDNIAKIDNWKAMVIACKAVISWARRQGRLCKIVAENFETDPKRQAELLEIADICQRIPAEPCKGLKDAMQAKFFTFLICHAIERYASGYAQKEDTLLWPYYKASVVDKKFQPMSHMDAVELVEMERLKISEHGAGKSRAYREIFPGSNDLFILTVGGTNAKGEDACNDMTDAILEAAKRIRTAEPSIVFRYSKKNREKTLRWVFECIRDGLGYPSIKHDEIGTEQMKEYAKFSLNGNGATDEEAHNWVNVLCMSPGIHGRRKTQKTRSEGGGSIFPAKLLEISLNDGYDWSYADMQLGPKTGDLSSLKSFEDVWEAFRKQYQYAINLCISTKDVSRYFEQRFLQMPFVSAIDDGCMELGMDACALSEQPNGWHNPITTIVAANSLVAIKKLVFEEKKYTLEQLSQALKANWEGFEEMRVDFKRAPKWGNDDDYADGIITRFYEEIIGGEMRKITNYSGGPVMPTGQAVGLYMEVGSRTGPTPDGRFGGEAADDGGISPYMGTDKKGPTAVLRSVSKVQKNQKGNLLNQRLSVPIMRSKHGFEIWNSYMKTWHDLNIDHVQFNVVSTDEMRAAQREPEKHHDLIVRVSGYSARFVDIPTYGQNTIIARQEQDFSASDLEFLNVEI
T1 sequence (O68396 1-81 partner): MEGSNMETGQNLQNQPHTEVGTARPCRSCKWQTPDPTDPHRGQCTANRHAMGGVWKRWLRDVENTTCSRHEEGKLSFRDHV
T1 sequence (O68394 1-60 partner): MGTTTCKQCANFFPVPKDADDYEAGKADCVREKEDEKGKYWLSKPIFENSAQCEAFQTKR

Cc1ccccc1 [toluene]
X-ray crystal structure, 2.9 Å: In the active site, both toluene and fumarate were modeled and align well
